Experimental data as given in ChEMBL document CHEMBL3508140 (2016).

Tests used:
[1] = (§1) Excretory balance of radioactivity in urine following intravenous 14C-epirubicin at 0.45 ug.eq.Kg-1 dose in rat; format: ADME, organism-based, SD; parameters: dose 0.45 ug.eq.Kg-1, dosed compound id 2.46808e+06, dosed compound name 14C-Epirubicin, route intravenous, sampling time 0-2 h, study doses 0.45 ug.eq.Kg-1; details: in vivo
[2] = (§2) Excretory balance of radioactivity in faeces following intravenous 14C-epirubicin at 0.45 ug.eq.Kg-1 dose in rat; format: ADME, organism-based, SD, Feces; parameters: dose 0.45 ug.eq.Kg-1, dosed compound id 2.46808e+06, dosed compound name 14C-Epirubicin, route intravenous, sampling time 0-4 h, study doses 0.45 ug.eq.Kg-1; details: in vivo
[3] = (§3) Excretory balance of radioactivity in bile following intravenous 14C-epirubicin at 1 mg.Kg-1 dose in rat; format: ADME, organism-based, SD; parameters: dose 1 mg.Kg-1, dosed compound id 2.46808e+06, dosed compound name 14C-Epirubicin, route intravenous, sampling time 0-24 h; details: in vivo
[4] = as §2; format: ADME, organism-based, SD, Feces; parameters: dose 0.45 ug.eq.Kg-1, dosed compound id 2.46808e+06, dosed compound name 14C-Epirubicin, route intravenous, sampling time 0-1 h, study doses 0.45 ug.eq.Kg-1; details: in vivo
[5] = as §3; format: ADME, organism-based, SD; parameters: dose 1 mg.Kg-1, dosed compound id 2.46808e+06, dosed compound name 14C-Epirubicin, route intravenous, sampling time 0-6 h; details: in vivo
[6] = as §1; format: ADME, organism-based, SD; parameters: dose 0.45 ug.eq.Kg-1, dosed compound id 2.46808e+06, dosed compound name 14C-Epirubicin, route intravenous, sampling time 0-8 h, study doses 0.45 ug.eq.Kg-1; details: in vivo
[7] = (§4) Excretory balance of radioactivity in faeces following intravenous 14C-epirubicin at 1 mg.Kg-1 dose in rat; format: ADME, organism-based, SD, Feces; parameters: dose 1 mg.Kg-1, dosed compound id 2.46808e+06, dosed compound name 14C-Epirubicin, route intravenous, sampling time 0-6 h; details: in vivo
[8] = (§5) Excretory balance of radioactivity in urine following intravenous 14C-epirubicin at 1 mg.Kg-1 dose in rat; format: ADME, organism-based, SD; parameters: dose 1 mg.Kg-1, dosed compound id 2.46808e+06, dosed compound name 14C-Epirubicin, route intravenous, sampling time 0-2 h; details: in vivo
[9] = as §5; format: ADME, organism-based, SD; parameters: dose 1 mg.Kg-1, dosed compound id 2.46808e+06, dosed compound name 14C-Epirubicin, route intravenous, sampling time 0-1 h; details: in vivo
[10] = as §5; format: ADME, organism-based, SD; parameters: dose 1 mg.Kg-1, dosed compound id 2.46808e+06, dosed compound name 14C-Epirubicin, route intravenous, sampling time 0-6 h; details: in vivo
[11] = as §4; format: ADME, organism-based, SD, Feces; parameters: dose 1 mg.Kg-1, dosed compound id 2.46808e+06, dosed compound name 14C-Epirubicin, route intravenous, sampling time 0-1 h; details: in vivo
[12] = as §3; format: ADME, organism-based, SD; parameters: dose 1 mg.Kg-1, dosed compound id 2.46808e+06, dosed compound name 14C-Epirubicin, route intravenous, sampling time 0-48 h; details: in vivo
[13] = as §2; format: ADME, organism-based, SD, Feces; parameters: dose 0.45 ug.eq.Kg-1, dosed compound id 2.46808e+06, dosed compound name 14C-Epirubicin, route intravenous, sampling time 0-6 h, study doses 0.45 ug.eq.Kg-1; details: in vivo
[14] = as §4; format: ADME, organism-based, SD, Feces; parameters: dose 1 mg.Kg-1, dosed compound id 2.46808e+06, dosed compound name 14C-Epirubicin, route intravenous, sampling time 0-12 h; details: in vivo
[15] = as §4; format: ADME, organism-based, SD, Feces; parameters: dose 1 mg.Kg-1, dosed compound id 2.46808e+06, dosed compound name 14C-Epirubicin, route intravenous, sampling time 0-2 h; details: in vivo
[16] = as §1; format: ADME, organism-based, SD; parameters: dose 0.45 ug.eq.Kg-1, dosed compound id 2.46808e+06, dosed compound name 14C-Epirubicin, route intravenous, sampling time 0-4 h, study doses 0.45 ug.eq.Kg-1; details: in vivo
[17] = as §3; format: ADME, organism-based, SD; parameters: dose 1 mg.Kg-1, dosed compound id 2.46808e+06, dosed compound name 14C-Epirubicin, route intravenous, sampling time 0-12 h; details: in vivo
[18] = as §1; format: ADME, organism-based, SD; parameters: dose 0.45 ug.eq.Kg-1, dosed compound id 2.46808e+06, dosed compound name 14C-Epirubicin, route intravenous, sampling time 0-6 h, study doses 0.45 ug.eq.Kg-1; details: in vivo
[19] = as §3; format: ADME, organism-based, SD; parameters: dose 1 mg.Kg-1, dosed compound id 2.46808e+06, dosed compound name 14C-Epirubicin, route intravenous, sampling time 0-1 h; details: in vivo
[20] = as §5; format: ADME, organism-based, SD; parameters: dose 1 mg.Kg-1, dosed compound id 2.46808e+06, dosed compound name 14C-Epirubicin, route intravenous, sampling time 0-4 h; details: in vivo
[21] = as §4; format: ADME, organism-based, SD, Feces; parameters: dose 1 mg.Kg-1, dosed compound id 2.46808e+06, dosed compound name 14C-Epirubicin, route intravenous, sampling time 0-4 h; details: in vivo
[22] = (§6) Excretory balance of radioactivity in bile following intravenous 14C-epirubicin at 0.45 ug.eq.Kg-1 dose in rat; format: ADME, organism-based, SD; parameters: dose 0.45 ug.eq.Kg-1, dosed compound id 2.46808e+06, dosed compound name 14C-Epirubicin, route intravenous, sampling time 0-8 h, study doses 0.45 ug.eq.Kg-1; details: in vivo
[23] = Decrease in leukocytes observed following reference intravenous doxorubicin at 1 mg.Kg-1 per week in rat; format: toxicity, organism-based, SD, Blood; parameters: dose 1 mg.Kg-1, dosed compound id 2.46809e+06, dosed compound name Doxorubicin, dose level High, gender Mixed, regimen Once per week, route intravenous, sampling time 36 Week, study doses 0/0.3/0.6/1 mg.Kg-1; details: in vivo
[24] = as §5; format: ADME, organism-based, SD; parameters: dose 1 mg.Kg-1, dosed compound id 2.46808e+06, dosed compound name 14C-Epirubicin, route intravenous, sampling time 0-24 h; details: in vivo
[25] = Excretion of radioactivity in faeces following single intravenous 14C-epirubicin at 75 mg.m-2 dose in cancer patients; format: ADME, organism-based, Feces; parameters: dose 75 mg.m-2, dosed compound id 2.46808e+06, dosed compound name 14C-Epirubicin, regimen Single, sampling time 10 Day; details: human, in vivo, at 75 mg/m2
[26] = as §3; format: ADME, organism-based, SD; parameters: dose 1 mg.Kg-1, dosed compound id 2.46808e+06, dosed compound name 14C-Epirubicin, route intravenous, sampling time 0-4 h; details: in vivo
[27] = as §2; format: ADME, organism-based, SD, Feces; parameters: dose 0.45 ug.eq.Kg-1, dosed compound id 2.46808e+06, dosed compound name 14C-Epirubicin, route intravenous, sampling time 0-8 h, study doses 0.45 ug.eq.Kg-1; details: in vivo
[28] = as §5; format: ADME, organism-based, SD; parameters: dose 1 mg.Kg-1, dosed compound id 2.46808e+06, dosed compound name 14C-Epirubicin, route intravenous, sampling time 0-12 h; details: in vivo
[29] = as §5; format: ADME, organism-based, SD; parameters: dose 1 mg.Kg-1, dosed compound id 2.46808e+06, dosed compound name 14C-Epirubicin, route intravenous, sampling time 0-8 h; details: in vivo
[30] = Excretion of radioactivity in urine following single intravenous 14C-epirubicin at 75 mg.m-2 dose in cancer patients; format: ADME, organism-based; parameters: dose 75 mg.m-2, dosed compound id 2.46808e+06, dosed compound name 14C-Epirubicin, regimen Single, sampling time 10 Day; details: human, in vivo, at 75 mg/m2
[31] = as §1; format: ADME, organism-based, SD; parameters: dose 0.45 ug.eq.Kg-1, dosed compound id 2.46808e+06, dosed compound name 14C-Epirubicin, route intravenous, sampling time 0-24 h, study doses 0.45 ug.eq.Kg-1; details: in vivo
[32] = as §6; format: ADME, organism-based, SD; parameters: dose 0.45 ug.eq.Kg-1, dosed compound id 2.46808e+06, dosed compound name 14C-Epirubicin, route intravenous, sampling time 0-4 h, study doses 0.45 ug.eq.Kg-1; details: in vivo
[33] = as §6; format: ADME, organism-based, SD; parameters: dose 0.45 ug.eq.Kg-1, dosed compound id 2.46808e+06, dosed compound name 14C-Epirubicin, route intravenous, sampling time 0-6 h, study doses 0.45 ug.eq.Kg-1; details: in vivo
[34] = as §2; format: ADME, organism-based, SD, Feces; parameters: dose 0.45 ug.eq.Kg-1, dosed compound id 2.46808e+06, dosed compound name 14C-Epirubicin, route intravenous, sampling time 0-24 h, study doses 0.45 ug.eq.Kg-1; details: in vivo
[35] = as §2; format: ADME, organism-based, SD, Feces; parameters: dose 0.45 ug.eq.Kg-1, dosed compound id 2.46808e+06, dosed compound name 14C-Epirubicin, route intravenous, sampling time 0-48 h, study doses 0.45 ug.eq.Kg-1; details: in vivo
[36] = as §6; format: ADME, organism-based, SD; parameters: dose 0.45 ug.eq.Kg-1, dosed compound id 2.46808e+06, dosed compound name 14C-Epirubicin, route intravenous, sampling time 0-48 h, study doses 0.45 ug.eq.Kg-1; details: in vivo
[37] = as §6; format: ADME, organism-based, SD; parameters: dose 0.45 ug.eq.Kg-1, dosed compound id 2.46808e+06, dosed compound name 14C-Epirubicin, route intravenous, sampling time 0-2 h, study doses 0.45 ug.eq.Kg-1; details: in vivo
[38] = as §4; format: ADME, organism-based, SD, Feces; parameters: dose 1 mg.Kg-1, dosed compound id 2.46808e+06, dosed compound name 14C-Epirubicin, route intravenous, sampling time 0-8 h; details: in vivo
[39] = as §6; format: ADME, organism-based, SD; parameters: dose 0.45 ug.eq.Kg-1, dosed compound id 2.46808e+06, dosed compound name 14C-Epirubicin, route intravenous, sampling time 0-24 h, study doses 0.45 ug.eq.Kg-1; details: in vivo
[40] = as §5; format: ADME, organism-based, SD; parameters: dose 1 mg.Kg-1, dosed compound id 2.46808e+06, dosed compound name 14C-Epirubicin, route intravenous, sampling time 0-48 h; details: in vivo
[41] = as §2; format: ADME, organism-based, SD, Feces; parameters: dose 0.45 ug.eq.Kg-1, dosed compound id 2.46808e+06, dosed compound name 14C-Epirubicin, route intravenous, sampling time 0-2 h, study doses 0.45 ug.eq.Kg-1; details: in vivo
[42] = as §1; format: ADME, organism-based, SD; parameters: dose 0.45 ug.eq.Kg-1, dosed compound id 2.46808e+06, dosed compound name 14C-Epirubicin, route intravenous, sampling time 0-1 h, study doses 0.45 ug.eq.Kg-1; details: in vivo
[43] = as §3; format: ADME, organism-based, SD; parameters: dose 1 mg.Kg-1, dosed compound id 2.46808e+06, dosed compound name 14C-Epirubicin, route intravenous, sampling time 0-8 h; details: in vivo
[44] = as §6; format: ADME, organism-based, SD; parameters: dose 0.45 ug.eq.Kg-1, dosed compound id 2.46808e+06, dosed compound name 14C-Epirubicin, route intravenous, sampling time 0-1 h, study doses 0.45 ug.eq.Kg-1; details: in vivo
[45] = as §3; format: ADME, organism-based, SD; parameters: dose 1 mg.Kg-1, dosed compound id 2.46808e+06, dosed compound name 14C-Epirubicin, route intravenous, sampling time 0-2 h; details: in vivo
[46] = as §4; format: ADME, organism-based, SD, Feces; parameters: dose 1 mg.Kg-1, dosed compound id 2.46808e+06, dosed compound name 14C-Epirubicin, route intravenous, sampling time 0-48 h; details: in vivo

Q: Which results are given for `COc1cccc2c1C(=O)c1c(O)c3c(c(O)c1C2=O)C[C@@](O)(C(=O)CO)C[C@@H]3O[C@H]1C[C@H](N)[C@@H](O)[C@H](C)O1` [EPIRUBICIN]?
A: Radiolabel recovery [1]: OUTCOME = Observed; Radiolabel recovery [2]: OUTCOME = Observed; Radiolabel recovery [3]: 38.44%; Radiolabel recovery [4]: OUTCOME = Observed; Radiolabel recovery [5]: 25.25%; Radiolabel recovery [6]: 0.54%; Radiolabel recovery [7]: 1.18%; Radiolabel recovery [8]: OUTCOME = Observed; Radiolabel recovery [9]: OUTCOME = Observed; Radiolabel recovery [10]: 7.31%; Radiolabel recovery [11]: OUTCOME = Observed; Radiolabel recovery [12]: 47.72%; Radiolabel recovery [13]: OUTCOME = Observed; Radiolabel recovery [14]: 1.77%; Radiolabel recovery [15]: OUTCOME = Observed; Radiolabel recovery [16]: OUTCOME = Observed; Radiolabel recovery [17]: 30.19%; Radiolabel recovery [18]: OUTCOME = Observed; Radiolabel recovery [19]: 13.22%; Radiolabel recovery [20]: OUTCOME = Observed; Radiolabel recovery [21]: OUTCOME = Observed; Radiolabel recovery [22]: 7.05%; WBC_CHANGE [23]: 45%; Radiolabel recovery [24]: 12%; Radiolabel recovery [25]: 24%; Radiolabel recovery [26]: 22.93%; Radiolabel recovery [27]: OUTCOME = Not detectable; Radiolabel recovery [28]: 8.56%; Radiolabel recovery [29]: OUTCOME = Observed; Radiolabel recovery [30]: 16%; Radiolabel recovery [31]: 2.14%; Radiolabel recovery [32]: 2.01%; Radiolabel recovery [33]: 5.17%; Radiolabel recovery [34]: 26%; Radiolabel recovery [35]: 48.78%; Radiolabel recovery [36]: 17.32%; Radiolabel recovery [37]: 0.27%; Radiolabel recovery [38]: OUTCOME = Observed; Radiolabel recovery [39]: 14.72%; Radiolabel recovery [40]: 14.74%; Radiolabel recovery [41]: OUTCOME = Observed; Radiolabel recovery [42]: OUTCOME = Observed; Radiolabel recovery [43]: 28.39%; Radiolabel recovery [44]: 0.06%; Radiolabel recovery [45]: 18.13%; Radiolabel recovery [46]: 4.44%
